Measurements from patent US9957267B2, “Somatostatin modulators and uses thereof” (Crinetics Pharmaceuticals, Inc., priority 2015, dated 2018).

Columns and labels:
Assay type in all cases: cell-based
SSTR1 = molecular target: T1, SSTR1 (Homo sapiens, UniProt P30872); assay: cAMP functional agonist assay, CHO cells expressing SSTR1; conditions: CHO cells stably expressing SSTR1, cAMP; read-out: SSTR1 EC50
T1 construct: expressed in transfected cells
Procedure: (§1) Chinese hamster ovary (CHO) cells stably expressing one of the six human or rodent somatostatin receptor subtypes are grown to 85-100% confluence on standard tissue culture dishes in F12-Ham's growth media (Hyclone) with following additives: 10% donor calf serum (Hyclone), 200 U/mL penicillin (Hyclone), 200 μg/mL streptomycin (Hyclone), 20 mM HEPES (Hyclone), 200 μg/mL hygromycin Hyclone.
(§2) General overview: All SSTR subtypes are Gi coupled G-protein coupled receptors (GPCRs) that lead to decreases in intracellular cyclic AMP (cAMP) when activated by an agonist. […] One example of an intracellular cAMP assay is described below.

SSTR4 = molecular target: T2, SSTR4 (Homo sapiens, UniProt P31391); assay: cAMP functional agonist assay, CHO cells expressing SSTR4; conditions: CHO cells stably expressing SSTR4, cAMP; read-out: SSTR4 EC50
T2 construct: expressed in transfected cells
T2 sequence (P31391 whole entry): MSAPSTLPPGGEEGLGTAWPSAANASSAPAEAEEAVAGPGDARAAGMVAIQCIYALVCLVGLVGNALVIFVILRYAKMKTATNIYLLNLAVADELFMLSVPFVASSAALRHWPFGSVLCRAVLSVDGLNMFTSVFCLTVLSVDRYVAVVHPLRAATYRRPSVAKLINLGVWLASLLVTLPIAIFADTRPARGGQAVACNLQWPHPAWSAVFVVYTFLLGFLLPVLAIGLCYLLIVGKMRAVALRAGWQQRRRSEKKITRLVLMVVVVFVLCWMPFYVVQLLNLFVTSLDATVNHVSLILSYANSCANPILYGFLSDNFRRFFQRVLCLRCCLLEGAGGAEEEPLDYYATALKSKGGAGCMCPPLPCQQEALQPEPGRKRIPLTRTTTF
Procedure: as §1, §2

SSTR3 = SSTR3 (UniProt P32745); assay: cAMP functional agonist assay, CHO cells expressing SSTR3; conditions: CHO cells stably expressing SSTR3, cAMP
SSTR3, sequence (P32745 whole entry): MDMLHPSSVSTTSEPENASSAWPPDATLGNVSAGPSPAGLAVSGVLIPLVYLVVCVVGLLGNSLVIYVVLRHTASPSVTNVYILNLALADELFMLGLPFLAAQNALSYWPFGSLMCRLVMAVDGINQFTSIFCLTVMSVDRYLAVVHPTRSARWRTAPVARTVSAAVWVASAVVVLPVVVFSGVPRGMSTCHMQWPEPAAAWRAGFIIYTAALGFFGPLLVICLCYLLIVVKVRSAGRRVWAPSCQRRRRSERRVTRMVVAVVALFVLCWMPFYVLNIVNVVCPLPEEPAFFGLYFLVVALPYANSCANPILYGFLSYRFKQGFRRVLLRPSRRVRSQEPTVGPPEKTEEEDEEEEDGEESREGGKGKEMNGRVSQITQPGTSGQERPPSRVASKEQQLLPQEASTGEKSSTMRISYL
Procedure: as §1
(§3) General overview: All SSTR subtypes are Gi coupled G-protein coupled receptors (GPCRs) that lead to decreases in intracellular cyclic AMP (cAMP) when activated by an agonist. Therefore, measurement of intracellular cAMP levels can be used to assess whether compounds of the invention are agonists of SSTR subtypes (John Kelly, Troy Stevens, W. Joseph Thompson, and Roland Seifert, Current Protocols in Pharmacology, 2005, 2.2.1-2.2). One example of an intracellular cAMP assay is described below.

[1] = molecular target: T3, human somatostatin receptor subtype 2a (Homo sapiens, UniProt P30874); assay: cAMP assay for SSTR2a agonists (HTRF cAMP kit, NKH-477 stimulated); conditions: CHO cells stably expressing human SSTR2a, 1.6 μM NKH-477
T3 construct: expressed in transfected cells
T3 sequence (P30874 whole entry): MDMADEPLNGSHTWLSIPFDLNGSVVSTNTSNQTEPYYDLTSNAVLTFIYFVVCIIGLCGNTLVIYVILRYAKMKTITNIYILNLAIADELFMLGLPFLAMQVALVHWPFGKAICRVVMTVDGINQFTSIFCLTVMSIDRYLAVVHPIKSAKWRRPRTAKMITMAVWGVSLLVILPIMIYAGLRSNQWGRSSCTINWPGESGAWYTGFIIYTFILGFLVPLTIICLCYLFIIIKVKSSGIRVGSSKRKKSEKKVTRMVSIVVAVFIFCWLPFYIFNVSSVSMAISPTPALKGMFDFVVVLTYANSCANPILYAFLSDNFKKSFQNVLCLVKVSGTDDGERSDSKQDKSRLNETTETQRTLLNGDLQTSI
Procedure: as §1, §3
Four days prior to the assay, 5000 Chinese hamster ovary (CHO) cells stably expressing the human somatostatin receptor subtype 2a are plated in each well of a 96-well tissue culture plate (Nest Biotech Cell, flat bottom with low evaporation tissue culture treated; Polystyrene; Non-Pyrogenic) in F12-Ham's media (100 μL/well) supplemented with 200 μg/mL of hygromycin. Incubate at 37 C, 5% CO2, 95% humidity for four days. The cells should reach full confluence. On the day of the assay, various dilutions of the compounds of the invention are prepared in assay buffer (HRTF cAMP kit, Cisbio) in the presence of 1.6 μM NKH-477 (a water-soluble forskolin derivative) and 50 μL of the dilutions are added to the cultured cells and incubated for 20 minutes at 37° C. […] 50 μL of lysis buffer (HRTF cAMP kit, Cisbio) is added to each well and incubated at room temperature for 30 minutes, after which 150 μL assay buffer is added to each well. In a 384-well plate (Grenier, 784-080), 10 μL of assay mixture is added to 10 μL of developing mixture, containing cAMP detection and visualization antibodies are added and the assay is allowed incubate for 1-24 hours at room temperature. The intracellular cAMP concentrations are then measured using a commercially available detection kit (for example, the cAMP HTRF kit, Cisbio). The measured intracellular cAMP concentrations are plotted vs. the concentration of the compounds of the invention and the EC50 of the compounds are calculated using standard methods.

SSTR5 = molecular target: T4, SSTR5 (Homo sapiens, UniProt P35346); assay: cAMP functional agonist assay, CHO cells expressing SSTR5; conditions: CHO cells stably expressing SSTR5, cAMP
T4 construct: expressed in transfected cells
T4 sequence (P35346 whole entry): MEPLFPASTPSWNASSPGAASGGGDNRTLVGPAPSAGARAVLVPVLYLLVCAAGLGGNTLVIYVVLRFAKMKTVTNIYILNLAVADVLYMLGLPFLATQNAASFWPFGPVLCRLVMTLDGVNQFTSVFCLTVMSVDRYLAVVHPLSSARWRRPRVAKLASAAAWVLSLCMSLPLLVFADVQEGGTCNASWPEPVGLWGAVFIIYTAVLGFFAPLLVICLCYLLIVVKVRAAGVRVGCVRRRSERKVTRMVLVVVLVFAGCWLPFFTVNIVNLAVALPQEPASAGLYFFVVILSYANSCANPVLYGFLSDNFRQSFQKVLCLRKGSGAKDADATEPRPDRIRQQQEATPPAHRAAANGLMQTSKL
Procedure: as §1, §3

T1 sequence (P30872 whole entry): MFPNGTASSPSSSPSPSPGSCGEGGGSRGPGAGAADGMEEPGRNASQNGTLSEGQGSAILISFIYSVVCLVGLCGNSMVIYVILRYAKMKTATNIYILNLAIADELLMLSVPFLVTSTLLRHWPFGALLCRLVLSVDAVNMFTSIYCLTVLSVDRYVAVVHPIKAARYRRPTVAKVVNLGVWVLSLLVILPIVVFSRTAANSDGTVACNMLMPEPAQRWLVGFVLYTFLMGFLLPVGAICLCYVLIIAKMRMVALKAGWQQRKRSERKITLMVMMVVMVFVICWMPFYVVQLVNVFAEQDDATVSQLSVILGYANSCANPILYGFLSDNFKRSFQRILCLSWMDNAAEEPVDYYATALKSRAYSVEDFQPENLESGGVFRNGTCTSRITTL

| EC50 (SSTR1) [µM] | EC50 (SSTR4) [nM] | EC50 (SSTR3) [nM] | EC50 [1] [nM] | EC50 (SSTR5) [µM] | Structure (SMILES) |
| --- | --- | --- | --- | --- | --- |
| > 10 | < 100 | 100 to 10000 | < 100 | – | CC[C@H](N)CN(C)Cc1c(-c2cc(C)cc(Cl)c2)cnc2ncn(-c3cc(O)cc(F)c3)c(=O)c12 [Compound A-66, 5-({[(2S)-2-aminobutyl](methyl)amino}methyl)-6-(3-chloro-5-methylphenyl)-3-(3-fluoro-5-hydroxyphenyl)-3H,4H-pyrido[2,3-d]pyrimidin-4-one] |
| 0.1 to 10 | < 100 | < 100 | < 100 | 0.1 to 10 | CCc1nc2ncc(-c3cc(C)cc(Cl)c3)c(CN(C)C[C@@H]3CCCN3)c2c(=O)n1-c1cccc(O)c1 [Compound A-57, 6-(3-chloro-5-methylphenyl)-2-ethyl-3-(3-hydroxyphenyl)-5-({methyl[(2S)-pyrrolidin-2-ylmethyl]amino}methyl)-3H,4H-pyrido[2,3-d]pyrimidin-4-one] |
| 0.1 to 10 | < 100 | < 100 | < 100 | > 10 | Cc1cc(Cl)cc(-c2cnc3ncn(-c4cc(O)ccc4F)c(=O)c3c2CN(C)C[C@@H]2CCCN2)c1 [Compound A-54, 6-(3-chloro-5-methylphenyl)-3-(2-fluoro-5-hydroxyphenyl)-5-({methyl[(2S)-pyrrolidin-2-ylmethyl]amino}methyl)-3H,4H-pyrido[2,3-d]pyrimidin-4-one] |
| 0.1 to 10 | < 100 | < 100 | < 100 | – | Cc1cc(Cl)cc(-c2cnc3ncn(-c4cccc(O)c4)c(=O)c3c2CN(C)C[C@@H]2CCCCN2)c1 [Compound A-29, 6-(3-chloro-5-methylphenyl)-3-(3-hydroxyphenyl)-5-({methyl[(2S)-piperidin-2-ylmethyl]amino}methyl)-3H,4H-pyrido[2,3-d]pyrimidin-4-one] |
| 0.1 to 10 | < 100 | < 100 | < 100 | 0.1 to 10 | CC[C@H](N)CN(C)Cc1c(-c2cc(C)cc(C)c2)cnc2ncn(-c3cc(O)cc(F)c3)c(=O)c12 [Compound A-62, 5-({[(2S)-2-aminobutyl](methyl)amino}methyl)-6-(3,5-dimethylphenyl)-3-(3-fluoro-5-hydroxyphenyl)-3H,4H-pyrido[2,3-d]pyrimidin-4-one] |
| 0.1 to 10 | < 100 | < 100 | < 100 | – | Cc1cc(Cl)cc(-c2cnc3nc(C)n(-c4cc(F)cc(C#N)c4)c(=O)c3c2CN(C)C[C@@H]2CCCN2)c1 [Compound A-60, 3-[6-(3-chloro-5-methylphenyl)-2-methyl-5-({methyl[(2S)-pyrrolidin-2-ylmethyl]amino}methyl)-4-oxo-3H,4H-pyrido[2,3-d]pyrimidin-3-yl]-5-fluorobenzonitrile] |
| 0.1 to 10 | < 100 | 100 to 10000 | < 100 | 0.1 to 10 | Cc1cc(Cl)cc(-c2cnc3nc(C(C)C)n(-c4cccc(O)c4)c(=O)c3c2CN(C)C[C@@H]2CCCN2)c1 [Compound A-58, 6-(3-chloro-5-methylphenyl)-3-(3-hydroxyphenyl)-5-({methyl[(2S)-pyrrolidin-2-ylmethyl]amino}methyl)-2-(propan-2-yl)-3H,4H-pyrido[2,3-d]pyrimidin-4-one] |
| 0.1 to 10 | < 100 | < 100 | < 100 | 0.1 to 10 | Cc1cc(C)c(F)c(-c2cnc3ncn(-c4cccc(O)c4)c(=O)c3c2CN(C)CC2CCCCN2)c1 (centres unmarked) [Compound A-70, 6-(2-Fluoro-3,5-dimethyl-phenyl)-3-(3-hydroxy-phenyl)-5-[(methyl-piperidin-2-ylmethyl-amino)-methyl]-3H-pyrido[2,3-d]pyrimidin-4-one] |
| > 10 | < 100 | < 100 | < 100 | > 10 | Cc1cc(Cl)cc(-c2cnc3ncn(-c4cc(F)cc(C(N)=O)c4)c(=O)c3c2CN(C)C[C@H]2CCCN2)c1 [Compound A-51, 3-[6-(3-chloro-5-methylphenyl)-5-({methyl[(2R)-pyrrolidin-2-ylmethyl]amino}methyl)-4-oxo-3H,4H-pyrido[2,3-d]pyrimidin-3-yl]-5-fluorobenzamide] |
| 0.1 to 10 | < 100 | < 100 | < 100 | – | Cc1cc(F)cc(-c2cnc3ncn(-c4cccc(O)c4)c(=O)c3c2CN(C)CC2CCCCN2)c1 (centres unmarked) [Compound A-25, 6-(3-fluoro-5-methylphenyl)-3-(3-hydroxyphenyl)-5-{[methyl(piperidin-2-ylmethyl)amino]methyl}-3H,4H-pyrido[2,3-d]pyrimidin-4-one] |
| 0.1 to 10 | < 100 | < 100 | < 100 | 0.1 to 10 | CC[C@H](N)CN(C)Cc1c(-c2cc(C)cc(Cl)c2)cnc2ncn(-c3cc(O)cc(C(F)(F)F)c3)c(=O)c12 [Compound A-65, 5-({[(2S)-2-aminobutyl](methyl)amino}methyl)-6-(3-chloro-5-methylphenyl)-3-[3-hydroxy-5-(trifluoromethyl)phenyl]-3H,4H-pyrido[2,3-d]pyrimidin-4-one] |
| > 10 | < 100 | 100 to 10000 | < 100 | > 10 | CN(Cc1c(-c2cccc(CO)c2)cnc2ncn(-c3cccc(O)c3)c(=O)c12)C[C@@H]1CCCN1 [Compound A-34, 6-[3-(hydroxymethyl)phenyl]-3-(3-hydroxyphenyl)-5-({methyl[(2S)-pyrrolidin-2-ylmethyl]amino}methyl)-3H,4H-pyrido[2,3-d]pyrimidin-4-one] |
| 0.1 to 10 | < 100 | < 100 | < 100 | – | CCN(Cc1c(-c2cc(C)cc(C)c2)cnc2ncn(-c3cccc(O)c3)c(=O)c12)C[C@H](C)N [Compound A-9, 5-({[(2S)-2-aminopropyl](ethyl)amino}methyl)-6-(3,5-dimethylphenyl)-3-(3-hydroxyphenyl)-3H,4H-pyrido[2,3-d]pyrimidin-4-one] |
| > 10 | < 100 | 100 to 10000 | < 100 | > 10 | CN(Cc1c(-c2cccc(CCO)c2)cnc2ncn(-c3cccc(O)c3)c(=O)c12)C[C@@H]1CCCN1 [Compound A-32, 6-[3-(2-hydroxyethyl)phenyl]-3-(3-hydroxyphenyl)-5-({methyl[(2S)-pyrrolidin-2-ylmethyl]amino}methyl)-3H,4H-pyrido[2,3-d]pyrimidin-4-one] |
| > 10 | < 100 | 100 to 10000 | < 100 | – | CCN(CCN)Cc1c(-c2cc(C)cc(Cl)c2)cnc2ncn(-c3cc(O)cc(F)c3)c(=O)c12 [Compound A-3, 5-(((2-aminoethyl)(ethyl)amino)methyl)-6-(3-chloro-5-methylphenyl)-3-(3-fluoro-5-hydroxyphenyl)pyrido[2,3-d]pyrimidin-4(3H)-one] |
| 0.1 to 10 | < 100 | < 100 | < 100 | – | CN(Cc1c(-c2cccc(Cl)c2)cnc2ncn(-c3cccc(O)c3)c(=O)c12)CC1CCCCN1 (centres unmarked) [Compound A-24, 6-(3-chlorophenyl)-3-(3-hydroxyphenyl)-5-{[methyl(piperidin-2-ylmethyl)amino]methyl}-3H,4H-pyrido[2,3-d]pyrimidin-4-one] |
| – | < 100 | 100 to 10000 | < 100 | > 10 | CC[C@H](N)CN(C)Cc1c(-c2cc(C)cc(C)c2)cnc2ncn(-c3cccc(O)c3)c(=O)c12 [Compound A-61, 5-({[(2S)-2-aminobutyl](methyl)amino}methyl)-6-(3,5-dimethylphenyl)-3-(3-hydroxyphenyl)-3H,4H-pyrido[2,3-d]pyrimidin-4-one] |
